Literature values, collected in article PMC11406440 (Food and chemical toxicology : an international journal …, 2024).
Like-named read-outs stand apart in the source and are kept apart here.

Tests used:
male rats = details: 3 and 10 mg/kg/d; ref Butenhoff et al., 2009; cited from earlier work
mice = details: dermal exposure; ref Weatherly et al., 2021, 2023; cited from earlier work
[1] = 5% dermal exposure, same conditions; ref Weatherly et al., 2023; cited from earlier work
[2] = ref ATSDR, 2021; cited from earlier work
[3] = 4-day dermal exposure, ref Franko et al., 2012, cited from earlier work
IgM response to SRBC = details: cited from earlier work
[4] = ex vivo mouse skin; ref Franko et al., 2012; cited from earlier work
[5] = ex vivo human full-thickness skin; ref Franko et al., 2012; cited from earlier work

O=S(=O)([O-])C(F)(F)C(F)(F)C(F)(F)C(F)(F)C(F)(F)C(F)(F)F.[K+] [K^+PFHxS, PFHxS potassium salt]
Liver weight (male rats): increase

O=C(O)C(F)(F)C(F)(F)C(F)(F)F [PFBA, heptafluorobutyric acid]
Cholesterol (mice): increased | Glucose levels (mice): increased

O=C(O)C(F)(F)C(F)(F)C(F)(F)C(F)(F)C(F)(F)C(F)(F)F [PFHpA, perfluoroheptanoic acid]
Cholesterol (mice): no effect | Glucose levels (mice): increased | Average serum concentration [1]: 137 µg/mL | Average urine concentration [1]: 1200 µg/mL

O=C(O)C(F)(F)C(F)(F)C(F)(F)C(F)(F)C(F)(F)F [PFHxA, perfluorohexanoic acid]
Cholesterol (mice): no effect | Glucose levels (mice): increased | Average serum concentration [1]: 4.8 µg/mL | Average urine concentration [1]: 1700 µg/mL

O=C(O)C(F)(F)C(F)(F)C(F)(F)C(F)(F)C(F)(F)C(F)(F)C(F)(F)F [PFOA, perfluorooctanoic acid]
Half-life in humans [2]: 2.1–10.1 years | Serum PFOA level ([3]; 0.5% PFOA): 152 ± 14 µg/mL | Serum PFOA level ([3]; 2% PFOA): 226 ± 14 µg/mL | SRBC IgM antibody titers (IgM response to SRBC; 15 days, 3.75–30 mg/kg via drinking water, ref Dewitt et al., 2008): reduce | IgM response to SRBC (IgM response to SRBC; dermal exposure, ref Shane et al., 2020): suppression | Total absorbable fraction [4]: 50% | Total absorbable fraction [5]: 69%

O=C(O)C(F)(F)C(F)(F)C(F)(F)C(F)(F)F [PFPeA, perfluoropentanoic acid]
Cholesterol (mice): no effect | Glucose levels (mice): increased
